Experimental data: PMC11338008, “Development and validation of CYP26A1 inhibition assay for high-throughput screening” (Biotechnology journal, 2024)
Entries after “also recorded” stand apart in the source; their conditions may differ.

Test system: CYP26B1, CYP1A2, CYP3A4, CYP2C9, CYP2C19, CYP2D6
Experiment: Selectivity across other P450-Glo CYP assays (heatmap, Figure 5)
Settings: compared with CYP26A1 assay
Description: The CYP26B1 assay was a custom assay prepared as described above except it contained recombinant human CYP26B1 co-expressed with POR in E. coli (Cypex/BioIVT, Dundee, Scotland, UK; catalog # CYP071) in place of the Cyp26a1 sequence. […] The luminescence signal in each well was measured using a ViewLux plate reader.

Compound	activity pattern / selectivity across CYP assays, in words
CC(C)(C)C(=O)C(Oc1ccc(Cl)cc1)n1cncn1 (centres unmarked) [Triadimefon]	inhibitory effects in the CYP26A1 assay similar to their activity patterns on CYP26B1, CYP3A4, CYP2C9, and CYP2C19
OC(Cn1cncn1)(Cn1cncn1)c1ccc(F)cc1F [Fluconazole]	inhibitory effects in the CYP26A1 assay similar to their activity patterns on CYP26B1, CYP3A4, CYP2C9, and CYP2C19
CCC(CC)C(c1ccc(Nc2nc3ccccc3s2)cc1)n1cncn1 (centres unmarked) [R115866/Talarozole, Talarozole]	inhibitory effects in the CYP26A1 assay similar to their activity patterns on CYP26B1, CYP3A4, CYP2C9, and CYP2C19; also recorded: broad-spectrum inhibition across various CYP enzymes; also recorded: significant potency in both CYP26A1/B1 and CYP3A4 assays
CCCOC/C(=N\c1ccc(Cl)cc1C(F)(F)F)n1ccnc1 [Triflumizole]	inhibitory effects in the CYP26A1 assay similar to their activity patterns on CYP26B1, CYP3A4, CYP2C9, and CYP2C19
CCCN(CCOc1c(Cl)cc(Cl)cc1Cl)C(=O)n1ccnc1 [Prochloraz]	inhibitory effects in the CYP26A1 assay similar to their activity patterns on CYP26B1, CYP3A4, CYP2C9, and CYP2C19
